# Data taken from patent US6855710B2, “Substituted indolines with an inhibitory effect on various kinases and complexes of CDKs” (Boehringer Ingelheim Pharma KG, priority 1998, dated 2005).
row,SMILES,melting point
1,"CCC(=O)N(CCN1CCOCC1)c1ccc(N/C(=C2\C(=O)Nc3ccc([N+](=O)[O-])cc32)c2ccccc2)cc1 [Example 335, (Z)-3-{1-[4-(N-(2-morpholinoethyl)-N-propionyl-amino)-phenylamino]-1-phenyl-methylidene}-5-nitro-2-indolinone]",232 °C
2,"Nc1ccc(N/C(=C2\C(=O)Nc3ccc([N+](=O)[O-])cc32)c2ccccc2)cc1 [Example 91, (Z)-3-[1-(4-aminophenylamino)-1-phenyl-methylidene]-5-nitro-2-indolinone]",269 °C
3,"CN(C)C(=O)CCNCc1cccc(N/C(=C2\C(=O)Nc3ccc([N+](=O)[O-])cc32)c2ccccc2)c1 [Example 253, (Z)-3-{1-[3-(2-dimethylaminocarbonyl-ethylaminomethyl)-phenylamino]-1-phenyl-methylidene}-5-nitro-2-indolinone]",177 to 179 °C
4,"CC(=O)NCc1ccc(/C(Nc2ccc(N(C)C(=O)CN(C)C)cc2)=C2/C(=O)Nc3ccccc32)cc1 [Example 431, (Z)-3-{1-[4-(N-dimethylaminomethylcarbonyl-N-methyl-amino)-phenylamino]-1-(4-acetylaminomethyl-phenyl)-methylidene}-2-indolinone]",123 to 125 °C
5,"CN(Cc1ccc(N/C(=C2\C(=O)Nc3ccc([N+](=O)[O-])cc32)c2ccccc2)cc1)C1CCCC1 [Example 277, (Z)-3-{1-[4-(N-cyclopentyl-N-methyl-aminomethyl)-phenylamino]-1-phenyl-methylidene}-5-nitro-2-indolinone]",228 °C
6,"CC(C)(C)OC(=O)NCc1ccc(N/C(=C2\C(=O)Nc3ccc([N+](=O)[O-])cc32)c2ccc(CNC(=O)c3ccccc3C(=O)O)cc2)cc1 [Example 147, (Z)-3-{1-[4-tert.butoxycarbonylaminomethyl-phenylamino]-1-[4-(2-carboxyphenyl)-carbonylaminomethyl-phenyl]-methylidene}-5-nitro-2-indolinone]",138 °C (dec.)
7,"CC(=O)NCc1ccc(/C(Nc2cccc(N(CCCN(C)C)S(C)(=O)=O)c2)=C2/C(=O)Nc3ccccc32)cc1 [Example 425, (Z)-3-{1-[3-(N-(3-dimethylaminopropyl)-N-methylsulphonyl-amino)-phenylamino]-1-(4-acetylaminomethyl-phenyl)-methylidene}-2-indolinone]",208 °C

# Further lines, results first:
row,melting point,SMILES
1,202 to 204 °C,CCN(CC)C(=O)c1ccc(N/C(=C2\C(=O)Nc3ccccc32)c2ccccc2)cc1
2,224 to 227 °C,"CN(C(=O)C(F)(F)F)c1cccc(N/C(=C2\C(=O)Nc3ccccc32)c2ccccc2)c1 [Example 36, (Z)-3-{1-[3-(N-trifluoroacetyl-N-methyl-amino)-phenylamino]-1-phenyl-methylidene}-2-indolinone]"
3,272 to 274 °C,"CCC(=O)N(CCN(C)C)c1ccc(N/C(=C2\C(=O)Nc3ccccc32)c2ccccc2)cc1 [Example 341, (Z)-3-{1-[4-(N-(2-dimethylaminoethyl)-N-propionyl-amino)-phenylamino]-1-phenyl-methylidene}-2-indolinone]"
4,268 to 270 °C,"CNC(=O)CN(c1ccc(N/C(=C2\C(=O)Nc3ccccc32)c2ccccc2)cc1)S(C)(=O)=O [Example 192, (Z)-3-{1-[4-(N-methylaminocarbonylmethyl-N-methylsulphonyl-amino)-phenylamino]-1-phenyl-methylidene}-2-indolinone]"
5,290 to 292 °C,CN(C)CC(=O)N(C)c1ccc(N/C(=C2\C(=O)Nc3ccccc32)c2ccccc2)cc1.Cl
6,278 to 280 °C,"CN(C(=O)CN1C(=O)c2ccccc2C1=O)c1ccc(N/C(=C2\C(=O)Nc3ccccc32)c2ccccc2)cc1 [Example 365, (Z)-3-{1-[4-(N-phthalimidomethylcarbonyl-N-methyl-amino)-phenylamino]-1-phenyl-methylidene}-2-indolinone]"
